Data as given in patent publication US8324250B2 (Hoffmann-La Roche Inc., priority 2009, dated 2012).

Target: T1, recombinant human NK3 receptor (Homo sapiens, UniProt P29371)
T1 construct: expressed in transfected cells; host or cells: HEK293 cells (transient expression), membranes
T1 sequence (P29371 1-465): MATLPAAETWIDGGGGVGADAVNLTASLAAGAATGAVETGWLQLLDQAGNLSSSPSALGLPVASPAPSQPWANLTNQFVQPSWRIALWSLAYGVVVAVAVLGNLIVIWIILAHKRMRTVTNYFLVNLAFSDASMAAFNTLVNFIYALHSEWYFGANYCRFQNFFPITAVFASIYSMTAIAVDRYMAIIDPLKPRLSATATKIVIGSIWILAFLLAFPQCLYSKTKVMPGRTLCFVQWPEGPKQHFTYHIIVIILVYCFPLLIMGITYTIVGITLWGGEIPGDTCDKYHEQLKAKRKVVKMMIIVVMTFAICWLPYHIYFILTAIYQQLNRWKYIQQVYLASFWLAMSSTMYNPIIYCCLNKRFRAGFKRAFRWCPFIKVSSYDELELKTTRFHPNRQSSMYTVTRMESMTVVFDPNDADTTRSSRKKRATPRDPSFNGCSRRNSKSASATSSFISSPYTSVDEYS
Assay: [3H]SR142801 competition binding assay
Settings: membranes from HEK293 cells transiently expressing recombinant human NK3 receptor; [3H]SR142801 radioligand; 75 min at RT; Ki by Cheng-Prussoff; read-out: Data Ki (hNK-3 receptor affinity)
Description: [^3H]SR142801 Competition Binding Assay
hNK3 receptor binding experiment were performed using [^3H]SR142801 (Catalog No. TRK1035, specific activity: 74.0 Ci/mmol, Amersham, GE Healthcare UK limited, Buckinghamshire, UK) and membrane isolated from HEK293 cells transiently expressing recombinant human NK3 receptor. After thawing, the membrane homogenates were centrifuged at 48,000×g for 10 min at 4° C., the pellets were resuspended in the 50 mM Tris-HCl, 4 mM MnCl2, 1 μM phosphoramidon, 0.1% BSA binding buffer at pH 7.4 to a final assay concentration of 5 μg protein/well. […] At the end of the incubation, membranes were filtered onto unitfilter (96-well white microplate with bonded GF/C filter preincubated 1 h in 0.3% PEI+0.3% BSA, Packard BioScience, Meriden, Conn.) with a Filtermate 196 harvester (Packard BioScience) and washed 4 times with ice-cold 50 mM Tris-HCl, pH 7.4 buffer. Nonspecific binding was measured in the presence of 10 μM SB222200 for both radioligands. The radioactivity on the filter was counted (5 min) on a Packard Top-count microplate scintillation counter with quenching correction after addition of 45 μl of microscint 40 (Can berra Packard S. A., Zurich, Switzerland) and shaking for 1 h. Inhibition curves were fitted according to the Hill equation: y=100/(1+(x/IC50)^nH), where nH=slope factor using Excel-fit 4 software (Microsoft). IC50 values were derived from the inhibition curve and the affinity constant (Ki) values were calculated using the Cheng-Prussoff equation Ki═IC50/(1+[L]/KD) where [L] is the concentration of radioligand and KD is its dissociation constant at the receptor, derived from the saturation isotherm. All experiments were performed in duplicate and the mean±standard error (SEM) of the individual Ki values was calculated.

Compound	Ki
Cc1noc(-c2ccc(C(=O)N3CCC(C(=O)N[C@@H](C)c4ccc(F)cc4)(C4CCCC4)CC3)cc2)n1 [Example 111, 4- Cyclopentyl-1-[4-(3-methyl-[1,2,4]oxa-diazol-5-yl)-benzoyl]-piperidine-4-carboxylic acid [(S)-1-(4-fluoro-phenyl)-ethyl]-amide]	39.8 nM
Cc1noc(-c2ccc(C(=O)N3CCC(C(=O)N[C@@H](C)C4CCCCC4)(c4ccc(F)cc4)CC3)cc2)n1 [Example 90]	2.6 nM
Cc1nc(-c2ccc(C(=O)N3CCC(C(=O)N[C@@H](C)c4ccc(F)cc4)(c4ccc(F)cc4)CC3)cc2)no1 [Example 168, 4-(4-Fluoro-phenyl)-1-[4-(5-methyl-[1,2,4]oxadiazol-3-yl)-benzoyl]-piperidine-4-carboxylic acid [(S)-1-(4-fluoro-phenyl)-ethyl]-amide]	36 nM
Cc1noc(-c2ccc(C(=O)N3CCC(C(=O)N[C@@H](C)c4ccc(F)cc4)(c4ccccc4)CC3)cn2)n1 [Example 82, 1-[6-(3-Methyl-[1,2,4]oxa-diazol-5-yl)-pyridine-3-carbonyl]-4-phenyl-piperidine-4-carboxylic acid [(S)-1-(4-fluoro-phenyl)-ethyl]-amide]	5.3 nM
O=C(c1ccc(-c2ccc(F)cc2)cc1)N1CCC(C(=O)N[C@@H](c2cccc(F)c2)C2CC2)(c2ccc(F)cc2)CC1 [Example 194, 1-(4′-Fluoro-biphenyl-4-carbonyl)-4-(4-fluoro-phenyl)-piperidine-4-carboxylic acid [(R)-cyclopropyl-(3-fluoro-phenyl)-methyl]-amide]	35 nM
O=C(c1ccc(-c2ccc(F)cc2)cc1)N1CCC(C(=O)NC2(c3ccc(F)cc3)CC2)(c2ccc(F)cc2)CC1 [Example 135, 1-(4′-Fluoro-biphenyl-4-carbonyl)-4-(4-fluoro-phenyl)-piperidine-4-carboxylic acid [1-(4-fluoro-phenyl)-cyclopropyl]-amide]	26.7 nM
O=C(c1ccc(-c2ccc(F)cc2)cc1)N1CCC(C(=O)NC(CC2CC2)c2ccccc2)(c2ccc(F)cc2)CC1 (centres unmarked) [Example 148, 1-(4′-Fluoro-biphenyl-4-carbonyl)-4-(4-fluoro-phenyl)-piperidine-4-carboxylic acid (2-cyclopropyl-1-phenyl-ethyl)-amide]	5.8 nM
C[C@H](NC(=O)C1(c2ccc(F)cc2)CCN(C(=O)N2CCN(c3ccc(F)cc3)CC2)CC1)c1cccc(F)c1 [Example 178, 4-(4-Fluoro-phenyl)-1-[4-(4-fluoro-phenyl)-piperazine-1-carbonyl]-piperidine-4-carboxylic acid [(S)-1-(3-fluoro-phenyl)-ethyl]-amide]	19 nM
CC(C)C(NC(=O)C1(c2ccc(F)cc2)CCN(C(=O)C2CCN(c3ccc(C#N)cn3)CC2)CC1)c1ccc(F)cc1 (centres unmarked) [Example 153, 1-(5′-Cyano-3,4,5,6-tetrahydro-2H-[1,2′]bipyridinyl-4-carbonyl)-4-(4-fluoro-phenyl)-piperidine-4-carboxylic acid [1-(4-fluoro-phenyl)-2-methyl-propyl]-amide]	38 nM
C[C@H](NC(=O)C1(c2ccccc2)CCN(C(=O)c2ccc(-c3cccnc3)cc2)CC1)c1ccccc1 [Example 53, 4-Phenyl-1-(4-pyridin-3-yl-benzoyl)-piperidine-4-carboxylic acid ((S)-1-phenyl-ethyl)-amide]	23.2 nM
CC(=O)c1ccc(N2CCN(C(=O)N3CCC(C(=O)N[C@@H](C)c4ccccc4)(c4ccccc4)CC3)CC2)cc1 [Example 207, 1-[4-(4-Acetyl-phenyl)-piperazine-1-carbonyl]-4-phenyl-piperidine-4-carboxylic acid ((S)-1-phenyl-ethyl)-amide]	36.3 nM
CC(C)C(NC(=O)C1(c2ccc(F)cc2)CCN(C(=O)c2ccc(N3CCCCC3=O)cc2)CC1)c1ccc(F)cc1 (centres unmarked) [Example 171, 4-(4-Fluoro-phenyl)-1-[4-(2-oxo-piperidin-1-yl)-benzoyl]-piperidine-4-carboxylic acid [1-(4-fluoro-phenyl)-2-methyl-propyl]-amide]	54 nM
C[C@H](NC(=O)C1(c2ccccc2)CCN(C(=O)c2ccc(N3CCS(=O)(=O)CC3)cc2)CC1)c1ccccc1 [Example 9, 1-[4-(1,1-Dioxo-lλ6-thiomorpholin-4-yl)-benzoyl]-4-phenyl-piperidine-4-carboxylic acid ((S)-1-phenyl-ethyl)-amide]	21.8 nM
CC(C)c1nc(-c2ccc(C(=O)N3CCC(C(=O)N[C@@H](C)c4ccccc4)(c4ccccc4)CC3)cc2)no1 [Example 66, 1-[4-(5-Isopropyl-[1,2,4]oxa-diazol-3-yl)-benzoyl]-4-phenyl-piperidine-4-carboxylic acid ((S)-1-phenyl-ethyl)-amide]	59 nM
Cc1noc(-c2ccc(C(=O)N3CCC(C(=O)NC(c4ccc(F)cc4)C(C)C)(c4ccc(F)cc4)CC3)cc2)n1 (centres unmarked) [Example 158, 4-(4-Fluoro-phenyl)-1-[4-(3-methyl-[1,2,4]oxadiazol-5-yl)-benzoyl]-piperidine-4-carboxylic acid [1-(4-fluoro-phenyl)-2-methyl-propyl]-amide]	11 nM
C[C@H](NC(=O)C1(c2ccccc2)CCN(C(=O)c2ccc(-n3cnnn3)cc2)CC1)c1ccccc1 [Example 40, 4-Phenyl-1-(4-tetrazol-1-yl-benzoyl)-piperidine-4-carboxylic acid ((S)-1-phenyl-ethyl)-amide]	28.5 nM
C[C@H](NC(=O)C1(c2ccccc2)CCN(C(=O)c2ccc(-c3ccc(N)cc3)cc2)CC1)c1ccccc1 [Example 64, 1-(4′-Amino-biphenyl-4-carbonyl)-4-phenyl-piperidine-4-carboxylic acid ((S)-1-phenyl-ethyl)-amide]	72.7 nM
Cc1nc(-c2ccc(C(=O)N3CCC(C(=O)N[C@@H](C)c4ccccc4)(c4ccccc4)CC3)cc2)cs1 [Example 68]	20.9 nM
C[C@H](NC(=O)C1(C2CCCC2)CCN(C(=O)c2ccc(-c3ccc(F)cc3)cc2)CC1)c1ccc(F)cc1 [Example 110, 4- Cyclopentyl-1-(4′-fluoro-biphenyl-4-carbonyl)-piperidine-4-carboxylic acid [(S)-1-(4-fluoro-phenyl)-ethyl]-amide]	52.2 nM
C[C@H](NC(=O)C1(c2ccccc2)CCN(C(=O)N2CCN(C3CCCC3)CC2)CC1)c1ccccc1 [Example 215, 1-(4-Cyclopentyl-piperazine-1-carbonyl)-4-phenyl-piperidine-4-carboxylic acid ((S)-1-phenyl-ethyl)-amide]	20.6 nM
O=C(N1CCN(c2ccc(F)cc2)CC1)N1CCC(C(=O)NC2(c3ccc(F)cc3)CC2)(c2ccc(F)cc2)CC1 [Example 174]	24 nM
Cc1noc(-c2ccc(C(=O)N3CCC(C(=O)N[C@@H](C)c4ccc(F)cc4)(c4ccc(F)cc4)CC3)cc2)n1 [Example 88, 4-(4-Fluoro-phenyl)-1-{4-(3-methyl-[1,2,4]oxa-diazol-5-yl)-benzoyl] piperidine-4-carboxylic acid [(S)-1-(4-fluoro-phenyl)-ethyl]-amide]	6.2 nM
C[C@H](NC(=O)C1(c2ccccc2)CCN(C(=O)N2CCC(N3CCCCC3=O)CC2)CC1)c1ccccc1 [Example 216, 1-(2-Oxo-[1,4′]bipiperidinyl-1′-carbonyl)-4-phenyl-piperidine-4-carboxylic acid ((S)-1-phenyl-ethyl)-amide]	17.2 nM
C[C@H](NC(=O)C1(c2ccccc2)CCN(C(=O)c2ccc(-c3ccccc3)cc2)CC1)c1ccccc1 [Example 2, 1-(Biphenyl-4-carbonyl)-4-phenyl-piperidine-4-carboxylic acid ((S)-1-phenyl-ethyl)-amide]	22.9 nM
CC(=O)c1cccc(-c2ccc(C(=O)N3CCC(C(=O)N[C@@H](C)c4ccccc4)(c4ccccc4)CC3)cc2)c1 [Example 60, 1-(3′-Acetyl-biphenyl-4-carbonyl)-4-phenyl-piperidine-4-carboxylic acid ((S)-1-phenyl-ethyl)-amide]	31.5 nM
CC[C@H](NC(=O)C1(c2ccccc2)CCN(C(=O)c2ccc(-c3nc(C)no3)cc2)CC1)c1ccccc1 [Example 83, 1-[4-(3-Methyl-[1,2,4]oxa-diazol-5-yl)-benzoyl]-4-phenyl-piperidine 4-carboxylic acid ((S)-1-phenyl-propyl)-amide]	1.1 nM
